Assay results reported in US20250073180A1, “COMPOSITIONS COMPRISING NON-RACEMIC MIXTURES OF R- AND S-1,3-BUTANEDIOL AND USES THEREOF” (priority 2022, published 2025).

What was measured:
rats = details: dietary levels of 1.0, 3.0 and 10% for two years; cited from earlier work
dogs = details: dietary levels of 0.5, 1.0 and 3.0% for two years; cited from earlier work
[1] = ECHA registration dossiers; cited from earlier work
human volunteers = details: bolus doses of 0.5 g/kg bw or 0.7 g/kg bw; cited from earlier work
[2] = 25 g/day for 28 consecutive days; cited from earlier work
human subjects [3] = assay: Modified Beverage Tolerability Questionnaire (m-BTQ), acute pilot consumer study; type: in vivo
Description: (§1) Two scales were utilized: subjective effects with Biphasic Alcohol Effects Scale (BAES), a validated tool to measure the effects of drinking alcohol (Martin, C. S., et al. 1993. Alcoholism, Clinical and Experimental Research 17 (1): 140-46), and GI Tolerance with a Modified Beverage Tolerability Questionnaire (m-BTQ; Chen., 0. T., et al. 2021. Nutrients 13 (6): 2066). Participants were asked to fast for at least 2 hours before consuming the product, and complete the m-BTQ and BAES at 60 minutes following the consumption of the product.
(§2) The study population was 6 individuals between 25-40 years old. Questionnaires for the m-BTQ and BAES are provided below in Tables 1 and 2.
(§3) The six participants were between 25-40 years old, were 100% Caucasian and all (100%) identified as male.

human subjects [4] = assay: Biphasic Alcohol Effects Scale (BAES) questionnaire, acute pilot consumer study; type: in vivo; details: 60 minutes following consumption of 20 g in a beverage; n=3 per group
Description: as §1, §2, §3

CC(O)CCO (stereo not drawn) [1,3-butanediol]
Adverse effects attributable to ingestion (rats): no adverse effects attributable to the ingestion | Adverse effects attributable to ingestion (dogs): no adverse effects attributable to the ingestion | Acute oral, inhalation and dermal toxicity [1]: low | Side effects of bolus doses (human volunteers): nausea, euphoria and dizziness

CCCCCC(=O)OCC[C@@H](C)OC(=O)CCCCC [BH-BD, bis-hexanoyl (R)-1,3-butanediol]
Side effects and adverse events [2]: only mild side effects and no adverse events

C[C@@H](O)CCO [R-1,3-butanediol]
Mean Composite Tolerability Score (m-BTQ) (human subjects [3]; 60 minutes following consumption of 20 g in a beverage, fasted at least 2 hours, n=3 per group): 8 | Tolerability (in words) (human subjects [3]; acute use, 20 g beverage, all participants): well tolerated by all participants | Mean BAES-SED Composite Score (human subjects [4]): 22.3 | Mean BAES-STIM Composite Score (human subjects [4]): 41.7
